# Experimental data: patent publication EP2257297B1, “COMPOUNDS FOR USE IN THE TREATMENT OF ACNE, SEBORRHOEA AND SEBHORROEIC DERMATITIS, OR FOR REDUCING SEBUM SECRETION” (priority 2008, dated 2009)
# Target: T1, human MC5R (Homo sapiens, UniProt P33032)
# T1 construct: purchased Perkin Elmer RBXMC5M400UA
# Test: Human MC5R radioligand binding assay ([125I] NDP-MSH displacement, hMC5R membranes)
# Conditions: not given
# Description: After incubation for 10 mins the phosphate buffer containing the iodine was added to NDP-MSH (10 ul at 1 mg/mL) in a separate eppendorf tube. This was incubated for a further 10 mins.
# Resuspended membranes were kept on ice until they were added to the wells of the plate.
# Assays were performed in 96 well polypropylene plates. […] This was incubated for 1 hr at 37 °C. Non-specific binding was determined with […] NDP-MSH. Plates were filtered using a Tomtec cell harvester with GF/A filters (Wallac) (presoaked in 0.6% polyethylenimine) and washed three times with 1.0 mL ice-cold wash buffer (the above incubation buffer without 1,10-phenanthroline and Complete™ protease inhibitor tablet). The filters were dried in a 37 °C oven, placed in a sample bag and 5 mL Betaplatescint (Wallac) was added. Prepared filters were counted in cassettes in a Microbeta Trilux (Wallac) for 1 min. […] Data analysis was performed using GraphPad Prism 4, employing competition binding with a single site model and a fixed Hill coefficient. The following equation was used: Y = Bottom + (Top-Bottom)/1/10^(X-logEC50), where X = log(concentration) and Y = binding to fit the data.
# T1 sequence (P33032 whole entry): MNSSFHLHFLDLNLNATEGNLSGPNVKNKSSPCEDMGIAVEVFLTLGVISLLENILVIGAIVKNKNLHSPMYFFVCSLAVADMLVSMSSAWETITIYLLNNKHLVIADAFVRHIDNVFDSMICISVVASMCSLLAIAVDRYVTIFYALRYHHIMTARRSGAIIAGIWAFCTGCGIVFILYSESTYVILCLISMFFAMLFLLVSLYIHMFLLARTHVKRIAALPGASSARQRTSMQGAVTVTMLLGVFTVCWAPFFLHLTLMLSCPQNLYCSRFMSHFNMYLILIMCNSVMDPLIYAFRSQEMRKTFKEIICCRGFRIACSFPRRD
row,IC50,Structure (SMILES)
1,< 10000 nM,"CC[C@H](CN1CC[C@@H](CNC(=O)c2ccc(Cl)c(Cl)c2)N[C@@H](CCN)C1=O)C(C)C (racemic) [Compound 490, N-(((3S,5S)-3-(2-aminoethyl)-1-((S)-2-ethyl-3-methylbutyl)-2-oxo-1,4-diazepan-5-yl)methyl)-3,4-dichlorobenzamide]"

# Same assay, conditions: hMC5R assay as in Example 102; compounds tested as trifluoroacetate or hydrochloride salts, or as free base
row,IC50,Structure (SMILES)
1,< 100 nM,"N=C(N)NCCC[C@@H]1N[C@H](CNC(=O)/C=C/c2ccc(F)cc2)CCN(CC(c2ccccc2)c2ccccc2)C1=O [Compound 199, (E)-N-(((3S,5S)-1-(2,2-diphenylethyl)-3-(3-guanidinopropyl)-2-oxo-1,4-diazepan-5-yl)methyl)-3-(4-fluorophenyl)acrylamide]"
2,< 1000 nM,"NCCCC[C@@H]1N[C@H](CNC(=O)c2ccc3ccccc3c2)CCN(Cc2cccc3ccccc23)C1=O [Compound 117, N-(((3S,5S)-3-(4-aminobutyl)-1-(naphthalen-1-ylmethyl)-2-oxo-1,4-diazepan-5-yl)methyl)-2-naphthamide]"
3,< 10000 nM,"NCC[C@@H]1N[C@H](CCNC(=O)c2ccccc2)CCN(CC(c2ccccc2)c2ccccc2)C1=O [Compound 308, N-(2-((3S,5R)-1-(2,2-diphenylethyl)-2-oxo-3-(2-aminoethyl)-1,4-diazepan-5-yl)ethyl)benzamide]"
4,< 1000 nM,"N=C(N)NCCC[C@@H]1N[C@H](CNC(=O)/C=C/c2ccc(O)cc2)CCN(CC(c2ccccc2)c2ccccc2)C1=O [Compound 169, (E)-N-(((3S,5S)-1-(2,2-diphenylethyl)-3-(3-guanidinopropyl)-2-oxo-1,4-diazepan-5-yl)methyl)-3-(4-hydroxyphenyl)acrylamide]"
5,< 1000 nM,"NCCC[C@@H]1N[C@H](CNC(=O)c2cc(-c3ccco3)on2)CCN(CC(c2ccccc2)c2ccccc2)C1=O [Compound 241, N-(((3S,5S)-3-(3-aminopropyl)-1-(2,2-diphenylethyl)-2-oxo-1,4-diazepan-5-yl)methyl)-5-(furan-2-yl)isoxazole-3-carboxamide]"
6,< 1000 nM,"N=C(N)NCCC[C@@H]1N[C@H](CNC(=O)/C=C/c2cccc(O)c2)CCN(CC(c2ccccc2)c2ccccc2)C1=O [Compound 193, (E)-N-(((3S,5S)-1-(2,2-diphenylethyl)-3-(3-guanidinopropyl)-2-oxo-1,4-diazepan-5-yl)methyl)-3-(3-hydroxyphenyl)acrylamide]"
7,< 1000 nM,"CCC(CC)CN1CC[C@@H](CNC(=O)c2ccc3ccccc3c2)N[C@@H](CCN)C1=O [Compound 54, N-(((3S,5S)-3-(2-aminoethyl)-1-(2-ethylbutyl)-2-oxo-1,4-diazepan-5-yl)methyl)-2-naphthamide]"
8,< 100 nM,"NCCC[C@@H]1N[C@H](CNC(=O)c2ccc(-c3ccc(Cl)cc3)o2)CCN(CC(c2ccccc2)c2ccccc2)C1=O [Compound 237, N-(((3S,5S)-3-(3-aminopropyl)-1-(2,2-diphenylethyl)-2-oxo-1,4-diazepan-5-yl)methyl)-5-(4-chlorophenyl)furan-2-carboxamide]"
9,< 100 nM,"N=C(N)NCCC[C@@H]1N[C@H](CNC(=O)/C=C/c2ccccc2F)CCN(CC(c2ccccc2)c2ccccc2)C1=O [Compound 194, (E)-N-(((3S,5S)-1-(2,2-diphenylethyl)-3-(3-guanidinopropyl)-2-oxo-1,4-diazepan-5-yl)methyl)-3-(2-fluorophenyl)acrylamide]"
10,< 100 nM,"N=C(N)NCCC[C@@H]1N[C@H](CNC(=O)c2ccc(Cl)cc2Cl)CCN(CC(c2ccccc2)c2ccccc2)C1=O [Compound 136, 2,4-dichloro-N-(((3S,5S)-1-(2,2-diphenylethyl)-3-(3-guanidinopropyl)-2-oxo-1,4-diazepan-5-yl)methyl)benzamide]"
11,< 100 nM,"N=C(N)NCCC[C@@H]1N[C@H](CNC(=O)c2ccc(Cl)c(Cl)c2)CCN(CC(c2ccccc2)c2ccccc2)C1=O [Compound 152, 3,4-dichloro-N-(((3S,5S)-1-(2,2-diphenylethyl)-3-(3-guanidinopropyl)-2-oxo-1,4-diazepan-5-yl)methyl)benzamide]"
12,< 1000 nM,"N=C(N)NCCC[C@@H]1N[C@H](CNC(=O)/C=C/c2ccccc2Cl)CCN(CC(c2ccccc2)c2ccccc2)C1=O [Compound 189, (E)-3-(2-chlorophenyl)-N-(((3S,5S)-1-(2,2-diphenylethyl)-3-(3-guanidinopropyl)-2-oxo-1,4-diazepan-5-yl)methyl)acrylamide]"
13,< 1000 nM,"NCC[C@@H]1N[C@H](CNC(=O)c2ccc(Cl)c(Cl)c2)CCN(Cc2cc(Cl)cc(Cl)c2)C1=O [Compound 325, N-(((3S,5S)-3-(2-aminoethyl)-1-(3,5-dichlorobenzyl)-2-oxo-1,4-diazepan-5-yl)methyl)-3,4-dichlorobenzamide]"
14,< 100 nM,"N=C(N)NCCC[C@@H]1N[C@H](CNC(=O)c2cnc3ccccc3c2)CCN(CC(c2ccccc2)c2ccccc2)C1=O [Compound 112, N-(((3S,5S)-1-(2,2-diphenylethyl)-3-(3-guanidinopropyl)-2-oxo-1,4-diazepan-5-yl)methyl)quinoline-3-carboxamide]"
15,< 100 nM,"COc1ccc2cc(C(=O)NC[C@@H]3CCN(CC(c4ccccc4)c4ccccc4)C(=O)[C@H](CCCNC(=N)N)N3)ccc2c1 [Compound 158, N-(((3S,5S)-1-(2,2-diphenylethyl)-3-(3-guanidinopropyl)-2-oxo-1,4-diazepan-5-yl)methyl)-6-methoxy-2-naphthamide]"
16,< 100 nM,"O=C(/C=C/c1ccc(Cl)cc1)NC[C@@H]1CCN(CC(c2ccccc2)c2ccccc2)C(=O)[C@H](CCCN2CCCCC2)N1 [Compound 262, (E)-3-(4-chlorophenyl)-N-(((3S,5S)-1-(2,2-diphenylethyl)-2-oxo-3-(3-(piperidin-1-yl)propyl)-1,4-diazepan-5-yl)methyl)acrylamide]"
17,< 100 nM,"O=C(/C=C/c1ccc(Cl)cc1)NC[C@@H]1CCN(CC(c2ccccc2)c2ccccc2)C(=O)[C@H](CCC(=O)N2CCCCC2)N1 [Compound 318, (E)-3-(4-chlorophenyl)-N-(((3S,5S)-1-(2,2-diphenylethyl)-2-oxo-3-(3-oxo-3-(piperidin-1-yl)propyl)-1,4-diazepan-5-yl)methyl)acrylamide]"
18,< 100 nM,"O=C(NC[C@@H]1CCN(CC(c2ccccc2)c2ccccc2)C(=O)[C@H](CCCN2CCCCC2)N1)c1ccc(Cl)c(Cl)c1 [Compound 271, 3,4-dichloro-N-(((3S,5S)-1-(2,2-diphenylethyl)-2-oxo-3-(3-(piperidin-1-yl)propyl)-1,4-diazepan-5-yl)methyl)benzamide]"
19,< 10000 nM,"CN(C[C@@H]1CCN(CC(c2ccccc2)c2ccccc2)C(=O)[C@H](CCCN)N1)C(=O)/C=C/c1ccc(F)cc1 [Compound 257, (E)-N-(((3S,5S)-3-(3-aminopropyl)-1-(2,2-diphenylethyl)-2-oxo-1,4-diazepan-5-yl)methyl)-3-(4-fluorophenyl)-N-methylacrylamide]"
20,< 100 nM,"CN(C)C(=N)NCCC[C@@H]1N[C@H](CNC(=O)c2ccc3ccccc3c2)CCN(CC(c2ccccc2)c2ccccc2)C1=O [Compound 216, N-(((3S,5S)-3-(3-(3,3-dimethylguanidino)propyl)-1-(2,2-diphenylethyl)-2-oxo-1,4-diazepan-5-yl)methyl)-2-naphthamide]"

# Same assay, conditions: hMC5R binding assay as in Example 102; compounds tested as trifluoroacetate or hydrochloride salts, or as free base
row,IC50,Structure (SMILES)
1,< 1000 nM,"CC[C@@H](CN1CC[C@H](CNC(=O)c2ccc3cc(Cl)ccc3c2)N[C@@H](CCN2CCCCC2)C1=O)c1ccccc1 [Compound 583, 6-chloro-N-(((3S,5R)-2-oxo-1-((R)-2-phenylbutyl)-3-(2-(piperidin-1-yl)ethyl)-1,4-diazepan-5-yl)methyl)-2-naphthamide]"
